Laboratory results taken from patent US10610564B2, “IRGM and precision autophagy controls for antimicrobial and inflammatory disease states and methods of detection of autophagy” (STC.UNM, priority 2015, dated 2020).

Columns and labels:
AMPK = settings: statement in figure legend; compound C used at 20, 40, 80, 160 μM; cited from earlier work
[1] = test system: NLRP3, NLRP1, pro-caspase 1, TRIM20; experiment: Levels of inflammasome components and GFP-TRIM20 in cells expressing GFP-TRIM20 after autophagy induction (EBSS); assay type: cell-based; settings: EBSS 3 h, with bafilomycin A1
Protocol: (§1) (A) Levels of NLRP3 were determine in lysates from THP-1 cells subjected to TRIM20 or Scr siRNA were activated with 1,000 U/mL IFN-γ for 3 h, and 2.5 μg/mL LPS for 2 h (for optimal TRIM20 expression; Supplementary FIG. 24B). RI, relative intensity. (B) Levels of NLRP3 were determined from THP-1 subjected to TRIM20 or control knockdown and treated or not with bafilomycin A1 (Baf A1). (C) The abundance of NLRP3 protein was determined from THP-1 cells subjected to TRIM20 or control knockdown and exposed to Escherichia coli strain LF82 and IFN-γ in the presence or absence of bafilomycin. (D) The abundance of NLRP3 protein was determined from primary human MDMs subjected to TRIM20 or control knockdown and exposed to LPS and IFN-γ in the presence or absence of bafilomycin. (E) Levels of NLRP3 were determined from THP-1 cells subjected to ULK1, Beclin 1, or Scr siRNA were treated with IFN-γ and LPS. (F-H) Levels of NLRP3 (F), NLRP1 (G), or pro-capsase 1 (H) were determined in cells expressing GFP or GFP-TRIM20 following autophagy induction (EBSS, 3 h) in the presence or absence of bafilomycin A1. Data, means±SE, n≥3, *P<0.05, ^†P≥0.05 (ANOVA).
(A) Co-immunoprecipitation analysis of deletion variants of TRIM20 (as GFP fusions; asterisks denote fusion products on the bottom blot) with NLRP3 in HEK293 cells. (B) THP-1 cells were treated with IFN-γ for 3 h, additionally treated with 2.5 μg/ml of LPS for indicated periods, and TRIM20 mRNA levels were determined by quantitative PCR. […] (C and D) Levels of NLRP3 were determined in lysates from THP-1 cells subjected to TRIM20 or Scr siRNA were (C) untreated either IFN-γ or LPS, or (D) LPS alone for 2 h. (E) THP-1 cells were treated with 1.0 μg/ml of LPS for 3 h, and levels of NLRP3 in lysate were determined by immunoblots. (F) Knockdown efficacies of ULK1 and Beclin 1 by siRNA were examined by quantitative RT-PCR. (G and H) Levels of GFP-TRIM20 were determined in cells co-expressing (G) with or (H) without NLRP3 following autophagy induction (EBSS, 3 h) in the presence or absence of bafilomycin A1. […]

NOD2 = experiment: Western blot of NOD2 levels in HEK293T cells co-expressing GFP-IRGM and Flag-NOD2; assay type: cell-based; settings: Bafilomycin A1 100 nM for 8 h
Protocol: (A) Effects of IRGM expression on NOD2 levels in transfected HEK293T cells. Data, means±SE; *, p<0.05 (Student's unpaired t test). (B) Lysates of HEK293T cell co-expressing GFP or GFP-IRGM and Flag-NOD2, untreated/treated with Bafilomycin A1 (100 nM for 8 h) were subjected to Western blotting. (C) Lysates of cells co-expressing Flag-NOD2 and GFP, GFP-IRGM, or GFP-IRGM-K^mut were subjected to Western blotting. (D, E) Lysates from HEK293T cells co-expressing Myc-ULK1 and either GFP or increasing amounts of GFP-IRGM were subjected to Western blotting as in (D) with the relative abundance of Myc-ULK1 shown in (E). Blot was processed (dashed vertical line) to remove irrelevant lanes. (F) HEK293T cells transfected with plasmids encoding GFP, GFP-IRGM, or GFP-IRGM-K^mut and either Myc-ULK1 or Flag-Beclin 1 were lysed and subjected to Western blotting. Data from densitometric analyses of Western blots (B, C, E), means±SE, n=3*, p<0.05 (ANOVA). (G) Depiction of the role of IRGM ubiquitination in NOD2 degradation and ULK1 stabilization. See also FIG. 13.

NLRP3 = NLRP3 levels by immunoblot in THP-1 cells; assay type: cell-based, human; settings: THP-1 cells treated with IFN-γ and LPS, with or without bafilomycin A1
Protocol: as §1, with “Data, means±SE, n≥3, *P<0.05, ^†P≥0.05 (ANOVA).” left out
(A) Co-immunoprecipitation analysis of deletion variants of TRIM20 (as GFP fusions; asterisks denote fusion products on the bottom blot) with NLRP3 in HEK293 cells. […] (E) THP-1 cells were treated with 1.0 μg/ml of LPS for 3 h, and levels of NLRP3 in lysate were determined by immunoblots. […]

dimerized IRF3 = experiment: IRF3 dimerization assay (native PAGE) in THP-1 cells; assay type: cell-based, human; settings: HT-DNA and IFN-γ, with bafilomycin
Excerpt: (A) Confocal microscopy of HeLa cells co-expressing mCherry-TRIM21, Flag-IRF3, and GFP-LC3B in the presence of bafilomycin A1. White outline, cell boundary. Arrows indicate the colocalization. (B) Confocal microscopy of HEK293 cells co-expressing mCherry-TRIM21, Flag-IRF3, and GFP-ULK1. (C) Co-immunoprecipitation analysis of IRF3-ULK1 complexes in the presence and absence of TRIM21. Lysates from HEK293 cells transiently expressing Myc-ULK1, Flag-IRF3, and either […] or GFP were immunoprecipitated with anti-Myc, and immunoblots were probed as indicated. (D) Levels of dimerized IRF3 were assessed by native PAGE from THP-1 cells subjected to TRIM21 or control knockdown, and stimulated for 12 h by herring testis DNA (HT-DNA) transfected into the cells in the presence of 200 U/mL IFN-γ. […]
Detection of IRF3 dimerization was performed by native polyacrylamide gel electrophoresis (PAGE) as previously described (Takahasi et al., 2003). Quantitative RT-PCR was performed as previously described (Kimura et al., 2013) using the following primer sets: ULK1, ([…], […]); BECN1, ([…], […]); ACTIN, ([…], […]); TRIM1, ([…], […]); TRIM5, ([…], […]); TRIM8, ([…], […]); TRIM16, ([…], […]); TRIM20, ([…], […]); TRIM21, ([…], […]); TRIM22, ([…], […]); TRIM28, ([…], […]); TRIM56, ([…], […]); and TRIM65, ([…], […]). […]

| SMILES | AMPK inhibition (AMPK) | TRIM20 degradation in the presence of NLRP3 ([1]; GFP-TRIM20 co-expressed with NLRP3) | degradation of pro-caspase 1 and NLRP1 co-expressed with TRIM20 ([1]; cells expressing GFP-TRIM20) | destabilizing effect of TRIM20 overexpression on NLRP3 levels ([1]; cells expressing GFP-TRIM20) | IRGM-promoted NOD2 degradation (NOD2) | NLRP3 degradation (NLRP3) | dimerized IRF3 degradation (dimerized IRF3) |
| --- | --- | --- | --- | --- | --- | --- | --- |
| c1cc(-c2cnn3cc(-c4ccc(OCCN5CCCCC5)cc4)cnc23)ccn1 [Compound C] | potent inhibitor of AMPK |  |  |  |  |  |  |
| CO/C1=C\C(C)=C\[C@@H](C)[C@@H](O)[C@@H](C)C/C(C)=C/C=C/[C@H](OC)[C@@H]([C@@H](C)[C@@H](O)[C@H](C)[C@@]2(O)C[C@@H](O)[C@H](C)[C@@H](C(C)C)O2)OC1=O [bafilomycin A1] |  | protected | inhabitable | suppressed | partially blocked | protected NLRP3 | protected dimerized IRF3 from degradation |
